Here are results for seven compounds from patent EP2140864A2 (H. Lundbeck A/S, priority 2001, dated 2002).

As a reminder, the Ki is a dissociation constant, usually derived from enzyme kinetics or from competition with a known ligand.

The first experiment has as its target T1, human GAL2 receptor (Homo sapiens, UniProt O43603).
T1 construct: expressed in transfected cells
T1 sequence (O43603 1-387): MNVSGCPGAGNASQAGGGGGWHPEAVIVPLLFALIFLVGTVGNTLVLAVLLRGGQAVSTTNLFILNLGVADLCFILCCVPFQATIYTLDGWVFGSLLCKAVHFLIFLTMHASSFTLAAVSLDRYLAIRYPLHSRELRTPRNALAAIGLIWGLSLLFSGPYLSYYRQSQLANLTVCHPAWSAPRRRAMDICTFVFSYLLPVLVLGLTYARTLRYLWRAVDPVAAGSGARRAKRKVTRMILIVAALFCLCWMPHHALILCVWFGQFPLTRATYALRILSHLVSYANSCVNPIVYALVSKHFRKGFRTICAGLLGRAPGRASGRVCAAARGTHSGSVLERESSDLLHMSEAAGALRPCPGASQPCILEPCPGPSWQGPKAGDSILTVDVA
In words: Radioligand binding at cloned human GAL2 receptor. Particulars: indolones, read-out: Ki GalR2. Put shortly: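 Membranes from CHO cells stably expressing human GAL2 and LM(tk-) cells stably expressing human GAL1, resuspended in binding buffer (10 mM NaCl, 20 mM HEPES, pH 7.4). Binding data fitted by nonlinear regression.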
Turning to `O=C1C(=Nc2ccc(C(F)(F)F)cc2)c2ccccc2N1c1ccccc1` [Example 95, 1-PHENYL-3-[[4-(TRIFLUOROMETHYL)PHENYL]IMINO]-1,3-DIHYDRO-2H-INDOL-2-ONE], the Ki was more than 10 µM.

For `O=C1C(=Nc2ccc(Br)cc2)c2ccccc2N1c1ccccc1` [Example 98, 3-[(4-BROMOPHENYL)IMINO]-1-PHENYL-1,3-DIHYDRO-2H-INDOL-2-ONE], the Ki was more than 10 µM.

`O=C1C(=Nc2ccc(Cl)cc2)c2ccccc2N1c1ccccc1` [Example 97, 3-[(4-CHLOROPHENYL)IMINO]-1-PHENYL-1,3-DIHYDRO-2H-INDOL-2-ONE]: the Ki was more than 10 µM.

Regarding `O=C1C(=Nc2cc(Cl)cc(Cl)c2)c2ccccc2N1c1ccccc1` [Example 103, 3-[(3,5-DICHLOROPHENYL)IMINO]-1-PHENYL-1,3-DIHYDRO-2H-INDOL-2-ONE], the inhibition constant (Ki) was more than 10 µM.

For `O=C1C(=Nc2cccc(Cl)c2)c2ccccc2N1c1ccccc1` [Example 94, 3-[(3-CHLOROPHENYL)IMINO]-1-PHENYL-1,3-DIHYDRO-2H-INDOL-2-ONE], the Ki is more than 10 µM.

Still in this experiment, the particulars now being: pyrimidines, read-out: Ki GalR2.
As for `CN(C)c1cc(Nc2ccc(Cl)c(Cl)c2)nc(Nc2ccccc2)n1` [Example 60], the inhibition constant Ki was more than 5 µM.

As to `COc1cccc(Nc2cc(N3CCCCC3)nc(N(C)CCc3c[nH]c4ccccc34)n2)c1` [Example 17], the Ki worked out at 2.09 µM.

Another experiment concerns the target T2, human 5HT1A receptor (Homo sapiens, UniProt P08908).
T2 construct: expressed in transfected cells; host or cells: COS-7 cells, transient (pCEXV-3 vector)
T2 sequence (P08908 1-422): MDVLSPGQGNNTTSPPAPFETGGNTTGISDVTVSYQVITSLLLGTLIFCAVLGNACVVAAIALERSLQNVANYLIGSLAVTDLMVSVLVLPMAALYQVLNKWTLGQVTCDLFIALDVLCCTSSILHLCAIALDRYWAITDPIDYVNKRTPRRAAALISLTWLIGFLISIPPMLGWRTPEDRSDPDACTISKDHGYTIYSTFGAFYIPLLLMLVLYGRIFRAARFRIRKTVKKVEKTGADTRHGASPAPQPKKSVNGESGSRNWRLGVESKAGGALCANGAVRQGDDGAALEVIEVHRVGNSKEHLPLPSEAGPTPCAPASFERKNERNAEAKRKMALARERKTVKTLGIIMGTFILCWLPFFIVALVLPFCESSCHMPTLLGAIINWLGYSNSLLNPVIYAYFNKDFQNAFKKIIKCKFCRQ
Nature of the experiment: Radioligand binding, 5-HT1A receptor (3H-8-OH-DPAT). Particulars: Table 7; read-out: h5HT1A Ki. The protocol: 5-HT1A Receptor: The cDNA corresponding to the 5-HT1A receptor open reading frames and variable non-coding 5'-and 3'-regions, was cloned into the eukaryotic expression vector pCEXV-3. These constructs were transfected transiently into COS-7 cells by the DEAE-dextran method (Cullen, 1987), and harvested after 72 hours. Radioligand binding assays were performed as described above for the 5-HT2A receptor, except that ^3H-8-OH-DPAT was used as the radioligand and nonspecific binding was determined by the addition of 10 µM mianserin.
(§1) Binding data were analyzed using nonlinear regression and statistical techniques available in the GraphPAD Prism package (San Diego, CA). Enzymatic assay data were derived from a standard curve of reference compound data.
Consider `CN(C)c1cc(Nc2ccc(Cl)c(Cl)c2)nc(Nc2ccccc2)n1` [Example 60], for which the Ki was determined as 33.7 µM.

`COc1cccc(Nc2cc(N3CCCCC3)nc(N(C)CCc3c[nH]c4ccccc34)n2)c1` [Example 17]: the Ki came to 3.48 µM.

In the case of `O=C1C(=Nc2ccc(C(F)(F)F)cc2)c2ccccc2N1c1ccccc1` [Example 95, 1-PHENYL-3-[[4-(TRIFLUOROMETHYL)PHENYL]IMINO]-1,3-DIHYDRO-2H-INDOL-2-ONE], the Ki came out at 28.3 µM.

Consider `O=C1C(=Nc2ccc(Br)cc2)c2ccccc2N1c1ccccc1` [Example 98, 3-[(4-BROMOPHENYL)IMINO]-1-PHENYL-1,3-DIHYDRO-2H-INDOL-2-ONE], for which the inhibitory constant (Ki) stood at 24.6 µM.

For the compound `O=C1C(=Nc2ccc(Cl)cc2)c2ccccc2N1c1ccccc1` [Example 97, 3-[(4-CHLOROPHENYL)IMINO]-1-PHENYL-1,3-DIHYDRO-2H-INDOL-2-ONE], the inhibitory constant (Ki) is more than 50 µM.

With `O=C1C(=Nc2cccc(Cl)c2)c2ccccc2N1c1ccccc1` [Example 94, 3-[(3-CHLOROPHENYL)IMINO]-1-PHENYL-1,3-DIHYDRO-2H-INDOL-2-ONE], the Ki was more than 50 µM.

Still in this experiment, the particulars now being: Table 8; Ki h5HT1A divided by Ki hGAL3.
As for `CN(C)c1cc(Nc2ccc(Cl)c(Cl)c2)nc(Nc2ccccc2)n1` [Example 60], the “selectivity ratio h5HT1A” value was more than 100.

With `COc1cccc(Nc2cc(N3CCCCC3)nc(N(C)CCc3c[nH]c4ccccc34)n2)c1` [Example 17], the “selectivity ratio h5HT1A” value is given as more than 30.

In the case of `O=C1C(=Nc2ccc(C(F)(F)F)cc2)c2ccccc2N1c1ccccc1` [Example 95, 1-PHENYL-3-[[4-(TRIFLUOROMETHYL)PHENYL]IMINO]-1,3-DIHYDRO-2H-INDOL-2-ONE], the “selectivity ratio h5HT1A” value is more than 100.

On to `O=C1C(=Nc2ccc(Br)cc2)c2ccccc2N1c1ccccc1` [Example 98, 3-[(4-BROMOPHENYL)IMINO]-1-PHENYL-1,3-DIHYDRO-2H-INDOL-2-ONE], for which the “selectivity ratio h5HT1A” value is given as more than 100.

For the compound `O=C1C(=Nc2ccc(Cl)cc2)c2ccccc2N1c1ccccc1` [Example 97, 3-[(4-CHLOROPHENYL)IMINO]-1-PHENYL-1,3-DIHYDRO-2H-INDOL-2-ONE], the “selectivity ratio h5HT1A” value is more than 100.

Take `O=C1C(=Nc2cccc(Cl)c2)c2ccccc2N1c1ccccc1` [Example 94, 3-[(3-CHLOROPHENYL)IMINO]-1-PHENYL-1,3-DIHYDRO-2H-INDOL-2-ONE]: the “selectivity ratio h5HT1A” value is listed as more than 100.

The target of another experiment is T3, human dopamine D4 (Homo sapiens, UniProt P21917).
T3 construct: purchased BioSignal, Inc. (Montreal, Canada)
T3 sequence (P21917 1-419): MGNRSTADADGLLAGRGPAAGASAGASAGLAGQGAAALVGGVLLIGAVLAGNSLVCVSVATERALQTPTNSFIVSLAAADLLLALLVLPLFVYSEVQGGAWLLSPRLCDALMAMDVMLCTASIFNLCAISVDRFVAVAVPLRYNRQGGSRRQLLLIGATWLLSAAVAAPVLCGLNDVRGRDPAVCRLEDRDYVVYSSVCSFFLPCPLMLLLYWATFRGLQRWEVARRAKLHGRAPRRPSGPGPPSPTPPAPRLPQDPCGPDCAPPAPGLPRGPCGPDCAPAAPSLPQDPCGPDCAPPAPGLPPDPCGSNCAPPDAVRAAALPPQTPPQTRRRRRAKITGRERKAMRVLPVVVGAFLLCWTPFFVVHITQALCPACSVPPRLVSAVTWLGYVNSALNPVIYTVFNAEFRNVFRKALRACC
Nature of the experiment: Radioligand binding, dopamine D4 receptor. The settings on record: Table 9; read-out: hD4 Ki.
Source text: Other receptors: Cell membranes expressing human dopamine D1, D2, D4 and rat D3 receptors were purchased through BioSignal, Inc. (Montreal, Canada). Binding assays using the histamine H1 receptor; dopamine receptors; and α1A, α1E, and α2 adrenergic receptors may be carried out according to the procedures described in U.S. Patent No. 5,780,485, the disclosure of which is hereby incorporated by reference in its entirety into this application. Binding assays using the dopamine D5 receptor may be carried out according to the procedures described in U.S. Patent No. 5,882,855, the disclosure of which is hereby incorporated by reference in its entirety into this application. Binding assays for the human α1D adrenergic receptor may be carried out according to the procedures described in U.S. Patent No. 6,156,518, the disclosure of which is hereby incorporated by reference in its entirety into this application.
as §1
With `CN(C)c1cc(Nc2ccc(Cl)c(Cl)c2)nc(Nc2ccccc2)n1` [Example 60], the Ki came out at 48.8 µM.

For the compound `COc1cccc(Nc2cc(N3CCCCC3)nc(N(C)CCc3c[nH]c4ccccc34)n2)c1` [Example 17], the inhibition constant Ki is 22.2 µM.

On to `O=C1C(=Nc2ccc(C(F)(F)F)cc2)c2ccccc2N1c1ccccc1` [Example 95, 1-PHENYL-3-[[4-(TRIFLUOROMETHYL)PHENYL]IMINO]-1,3-DIHYDRO-2H-INDOL-2-ONE], for which the inhibition constant Ki is more than 50 µM.

Consider `O=C1C(=Nc2ccc(Br)cc2)c2ccccc2N1c1ccccc1` [Example 98, 3-[(4-BROMOPHENYL)IMINO]-1-PHENYL-1,3-DIHYDRO-2H-INDOL-2-ONE], for which the inhibition constant Ki is more than 50 µM.

Regarding `O=C1C(=Nc2ccc(Cl)cc2)c2ccccc2N1c1ccccc1` [Example 97, 3-[(4-CHLOROPHENYL)IMINO]-1-PHENYL-1,3-DIHYDRO-2H-INDOL-2-ONE], the Ki is more than 50 µM.

With `O=C1C(=Nc2cccc(Cl)c2)c2ccccc2N1c1ccccc1` [Example 94, 3-[(3-CHLOROPHENYL)IMINO]-1-PHENYL-1,3-DIHYDRO-2H-INDOL-2-ONE], the inhibition constant Ki is more than 50 µM.

The same experiment, now with this note: Table 10; Ki hD4 divided by Ki hGAL3.
`CN(C)c1cc(Nc2ccc(Cl)c(Cl)c2)nc(Nc2ccccc2)n1` [Example 60]: the “selectivity ratio hD4” value is given as more than 100.

Regarding `COc1cccc(Nc2cc(N3CCCCC3)nc(N(C)CCc3c[nH]c4ccccc34)n2)c1` [Example 17], the “selectivity ratio hD4” value is more than 100.

For the compound `O=C1C(=Nc2ccc(C(F)(F)F)cc2)c2ccccc2N1c1ccccc1` [Example 95, 1-PHENYL-3-[[4-(TRIFLUOROMETHYL)PHENYL]IMINO]-1,3-DIHYDRO-2H-INDOL-2-ONE], the “selectivity ratio hD4” value is listed as more than 100.

In the case of `O=C1C(=Nc2ccc(Br)cc2)c2ccccc2N1c1ccccc1` [Example 98, 3-[(4-BROMOPHENYL)IMINO]-1-PHENYL-1,3-DIHYDRO-2H-INDOL-2-ONE], the “selectivity ratio hD4” value was more than 100.

For `O=C1C(=Nc2ccc(Cl)cc2)c2ccccc2N1c1ccccc1` [Example 97, 3-[(4-CHLOROPHENYL)IMINO]-1-PHENYL-1,3-DIHYDRO-2H-INDOL-2-ONE], the “selectivity ratio hD4” value is listed as more than 100.

Regarding `O=C1C(=Nc2cccc(Cl)c2)c2ccccc2N1c1ccccc1` [Example 94, 3-[(3-CHLOROPHENYL)IMINO]-1-PHENYL-1,3-DIHYDRO-2H-INDOL-2-ONE], the “selectivity ratio hD4” value is reported as more than 100.
